Drawing on US8946282B2, “Indolin-2-one derivatives as protein kinase inhibitors” (Annji Pharmaceutical Co., Ltd., priority 2012, dated 2015), this text covers IC50, melting point and inhibition for 15 compounds.

The test system of data set [1] is HepG2 human hepatocellular carcinoma cells. The data set can be described thus: anti-proliferation, SRB colorimetric assay, HepG2. It counts as cell-based. The conditions noted are these: concentration required for 50% growth inhibition, read-out: IC50 (μM, mean ± S.D.). From the text: HCT116 human colorectal carcinoma cells (Table 3), HepG2 human hepatocellular carcinoma cells (Table 4), and MV4-11 human acute myelomonocytic leukemia cells (Table 5).
On the technique in general: Sulforhodamine B stains cellular protein and so reports cell mass.

In another data set the target is aurora B (Homo sapiens, UniProt Q96GD4). The data set can be described thus: radioisotope-based P81 filter-binding assay, aurora B kinase. It counts as biochemical. Particulars: for inhibition at 1 µM: compound at 1.0 μM, mean values (n=2), read-out: percent inhibition of enzyme catalytic activity, Aur B (numbers in parentheses); for IC50: averaged from two independent dose-response curves, read-out: Enzyme assay IC50 Aur B. As to the method: (§1) Compounds of formula (I)-(IV) were evaluated for abilities in inhibiting protein kinases aurora B and FLT-3 activity using radioisotope-based P81 filter-binding assay (Table 1).

Another data set concerns the target T1, FLT-3 (Homo sapiens, UniProt P36888).
T1 sequence (P36888 27-993): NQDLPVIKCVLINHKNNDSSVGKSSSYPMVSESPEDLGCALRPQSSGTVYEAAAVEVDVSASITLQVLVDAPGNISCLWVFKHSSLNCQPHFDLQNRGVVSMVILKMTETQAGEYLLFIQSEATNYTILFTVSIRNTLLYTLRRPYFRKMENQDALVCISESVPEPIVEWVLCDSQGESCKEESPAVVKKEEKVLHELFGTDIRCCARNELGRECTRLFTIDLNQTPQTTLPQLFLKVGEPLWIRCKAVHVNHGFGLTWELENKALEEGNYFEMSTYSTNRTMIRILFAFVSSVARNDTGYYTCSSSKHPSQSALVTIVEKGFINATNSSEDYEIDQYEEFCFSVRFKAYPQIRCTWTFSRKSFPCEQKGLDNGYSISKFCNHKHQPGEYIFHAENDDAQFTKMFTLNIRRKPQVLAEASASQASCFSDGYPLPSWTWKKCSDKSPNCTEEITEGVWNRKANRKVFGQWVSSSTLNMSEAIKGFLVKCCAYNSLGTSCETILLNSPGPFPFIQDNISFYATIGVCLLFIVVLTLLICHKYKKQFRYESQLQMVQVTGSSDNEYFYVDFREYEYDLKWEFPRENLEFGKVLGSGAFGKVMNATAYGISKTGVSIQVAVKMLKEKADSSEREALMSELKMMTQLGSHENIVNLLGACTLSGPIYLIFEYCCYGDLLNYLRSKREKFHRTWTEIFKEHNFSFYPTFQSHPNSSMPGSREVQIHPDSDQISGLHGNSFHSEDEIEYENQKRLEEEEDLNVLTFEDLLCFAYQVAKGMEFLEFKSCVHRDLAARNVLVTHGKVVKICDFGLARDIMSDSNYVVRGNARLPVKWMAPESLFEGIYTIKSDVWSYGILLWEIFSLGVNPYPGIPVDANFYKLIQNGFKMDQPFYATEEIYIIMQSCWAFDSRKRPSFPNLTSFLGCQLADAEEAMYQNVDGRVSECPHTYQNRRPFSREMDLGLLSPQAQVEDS
Put plainly: radioisotope-based P81 filter-binding assay, FLT-3 kinase. It counts as biochemical. Particulars: for IC50: averaged from two independent dose-response curves, read-out: Enzyme assay IC50 FLT-3. As to the method:
as §1

Data set [2] has as its system MV4-11 human acute myelomonocytic leukemia cells. The data set can be described thus: anti-proliferation, SRB colorimetric assay, MV4-11. It counts as cell-based. The conditions noted are these: concentration required for 50% growth inhibition. As to the method:
HCT116 human colorectal carcinoma cells (Table 3), HepG2 human hepatocellular carcinoma cells (Table 4), and MV4-11 human acute myelomonocytic leukemia cells (Table 5). Cells were treated with the test compound and the concentration required for 50% growth inhibition (IC50) determined by sulfomodamine B (SRB) colorimetric assay.

For data set [3], the system named is A549 human lung carcinoma cells. Put plainly: anti-proliferation, SRB colorimetric assay, A549. Particulars: concentration required for 50% growth inhibition, read-out: IC50 (μM, mean ± S.D.). It counts as cell-based.

Chain of aurora B (Q96GD4 whole entry): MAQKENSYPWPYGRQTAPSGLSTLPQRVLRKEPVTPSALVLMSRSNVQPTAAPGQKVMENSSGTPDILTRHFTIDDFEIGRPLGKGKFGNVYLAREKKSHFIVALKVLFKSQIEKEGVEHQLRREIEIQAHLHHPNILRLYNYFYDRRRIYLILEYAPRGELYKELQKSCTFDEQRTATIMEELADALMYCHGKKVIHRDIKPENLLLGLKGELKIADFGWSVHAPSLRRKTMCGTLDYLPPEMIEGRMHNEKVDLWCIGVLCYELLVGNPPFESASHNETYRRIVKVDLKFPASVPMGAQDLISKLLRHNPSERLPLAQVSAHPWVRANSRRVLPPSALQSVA

Turning to `COc1ccc(C(=O)NC(=O)Nc2ccc3c(c2)/C(=C/c2ccc[nH]2)C(=O)N3)cc1` [D14, (Z)—N-(3-((1H-pyrrol-2-yl)methylene)-2-oxoindolin-5-ylcarbamoyl)-4-methoxybenzamide], the melting point was 285 to 290 °C (dec.). Moreover, the IC50 in data set [1] is 0.64 ± 0.01 µM. The inhibition at 1 µM at aurora B came out at 39.3%. Further, the IC50 at FLT-3 was 201 nM. In addition, the IC50 in data set [2] was 0.07 nM. Also, the IC50 in data set [3] came out at 0.73 ± 0.02 µM.

With `COc1ccc(C(=O)NC(=O)Nc2cccc3c2NC(=O)/C3=C\c2ccc[nH]2)cc1` [D16, (Z)—N-(3-((1H-pyrrol-2-yl)methylene)-2-oxoindolin-7-ylcarbamoyl)-4-methoxybenzamide], the melting point is 253 to 258 °C (dec.). For the same compound, the IC50 in data set [1] was 0.84 ± 0.01 µM. Also, the inhibition at 1 µM at aurora B was determined as 7.3%. For the same compound, the inhibition at 1 µM at FLT-3 (compound at 1.0 μM, mean values (n=2), read-out: percent inhibition of enzyme catalytic activity, FLT-3 (numbers in parentheses)) amounted to 6.9%. In addition, the IC50 in data set [3] was determined as 0.99 ± 0.08 µM.

With `O=C(NC(=O)c1ccc(Cl)cc1)Nc1ccc2c(c1)NC(=O)/C2=C\c1ccc[nH]1` [D25, (Z)—N-(3-((1H-pyrrol-2-yl)methylene)-2-oxoindolin-6-ylcarbonamoyl)-4-chlorobenzamide], the melting point is 280 to 285 °C (dec.). For the same compound, the IC50 in data set [1] is 0.94 ± 0.03 µM. The IC50 at aurora B was determined as 6.5 nM. Besides, the concentration for half-maximal inhibition (IC50) on FLT-3 came out at 676 nM. Besides, in data set [2], the IC50 was determined as 6.14 nM.

In the case of `O=C(NC(=O)c1ccc(Cl)c(Cl)c1)Nc1ccc2c(c1)NC(=O)/C2=C\c1ccc[nH]1` [D26, (Z)—N-(3-((1H-pyrrol-2-yl)methylene)-2-oxoindolin-6-ylcarbamoyl)-3,4-dichlorobenzamide], the melting point was 295 to 300 °C (dec.). For the same compound, the IC50 in data set [1] was determined as 0.63 ± 0.04 µM. Further, the IC50 on aurora B stood at 7.7 nM. In addition, at FLT-3, the IC50 is over 1000 nM. In addition, the IC50 in data set [2] stood at 1.13 nM.

`Cc1ccc(C(=O)NC(=O)Nc2ccc3c(c2)NC(=O)/C3=C\c2[nH]c(C)c(C(=O)O)c2C)cc1` [D39, (Z)-2,4-dimethyl-5-((6-(3-(4-methylbenzoyl)ureido)-2-oxoindolin-3-ylidene)-methyl)-1H-pyrrole-3-carboxylic acid]: the melting point was 295 to 300 °C (dec.). The IC50 in data set [1] turned out to be 0.63 ± 0.21 µM. The concentration for half-maximal inhibition (IC50) on aurora B turned out to be 2.5 nM. Besides, on FLT-3, the IC50 was found to be 265 nM. The same compound yielded an IC50 in data set [2] of 7.21 nM. Besides, the concentration for half-maximal inhibition (IC50) in data set [3] was found to be 0.77 ± 0.11 µM.

`COc1ccc(C(=O)NC(=O)Nc2ccc3c(c2)NC(=O)/C3=C\c2[nH]c(C)c(C(=O)O)c2C)cc1` [D41, (Z)-5-((6-(3-(4-methoxybenzoyl)ureido)-2-oxoindolin-3-ylidene)-methyl)-2,4-di-methyl-1H-pyrrole-3-carboxylic acid]: the IC50 in data set [1] is 0.73 ± 0.13 µM; on aurora B it was 1.9 nM; on FLT-3, 180 nM; in data set [3], 0.48 ± 0.05 µM.

`Cc1[nH]c(/C=C2\C(=O)Nc3cc(NC(=O)NC(=O)c4ccccc4F)ccc32)c(C)c1C(=O)O` [D53, (Z)-5-((6-(3-(2-fluorobenzoyl)ureido)-2-oxoindolin-3-ylidene)methyl)-2,4-dimethyl-1H-pyrrole-3-carboxylic acid]: the melting point was 264 to 269 °C (dec.). Further, the concentration for half-maximal inhibition (IC50) in data set [1] is 0.85 ± 0.11 µM. The IC50 at aurora B was determined as 3.7 nM. Also, the IC50 on FLT-3 was 508 nM. Also, the half-inhibitory concentration (IC50) in data set [2] is 8.07 nM. Further, the IC50 in data set [3] was found to be 0.63 ± 0.08 µM.

For the compound `O=C(CC(=O)Nc1ccc2c(c1)NC(=O)/C2=C\c1ccc[nH]1)Nc1ccc(F)cc1` [D75, (Z)—N^1-(3-((1H-pyrrol-2-yl)methylene)-2-oxoindolin-6-yl)-N^3-(4-fluorophenyl)malonamide], the results for the 50% inhibitory concentration (IC50) (at aurora B; in data set [3]) were 25 nM and 0.69 ± 0.05 µM, respectively.

In the case of `Cc1[nH]c(/C=C2\C(=O)Nc3cc(NC(=O)N4CCN(C5CC5)C4=O)ccc32)c(C)c1CC(=O)O` [D97, (Z)-2-(5-((6-(3-cyclopropyl-2-oxoimidazolidine-1-carboxamido)-2-oxoindolin-3-ylidene)methyl)-2,4-dimethyl-1H-pyrrol-3-yl)acetic acid], the IC50 in data set [1] is 0.87 ± 0.05 µM; on aurora B, 2.7 nM; on FLT-3, 113 nM; in data set [3], 0.83 ± 0.04 µM.

`O=C1Nc2cc(NC(=O)c3cccn(-c4ccc(F)cc4)c3=O)ccc2/C1=C/c1ccc[nH]1` [D107, (Z)—N-(3-((1H-pyrrol-2-yl)methylene)-2-oxoindolin-6-yl)-1-(4-fluorophenyl)-2-oxo-1,2-dihydropyridine-3-carboxamide] registered a melting point of 295 to 296 °C. For the same compound, the IC50 in data set [1] amounted to 0.9 ± 0.2 µM. Besides, on aurora B, the IC50 turned out to be 791 nM. For the same compound, the IC50 at FLT-3 turned out to be 8.6 nM. The half-maximal inhibitory concentration (IC50) in data set [2] was 0.02 nM. Also, the IC50 in data set [3] turned out to be 0.7 ± 0.2 µM.

For the compound `O=C1Nc2cc(NC(=O)c3c[nH]cc(-c4ccccc4)c3=O)ccc2/C1=C/c1ccc[nH]1` [D127], the melting point was over 300 °C. Also, the IC50 on aurora B is 38.8 nM. The IC50 at FLT-3 was determined as 27.7 nM. Moreover, the IC50 in data set [2] was 7.18 nM. In addition, the IC50 in data set [3] came to 0.49 ± 0.03 µM.

Regarding `O=C1Nc2cc(NC(=O)c3c[nH]cc(-c4ccc(F)cc4)c3=O)ccc2/C1=C/c1ccc[nH]1` [D129, (Z)—N-(3-((1H-pyrrol-2-yl)methylene)-2-oxoindolin-6-yl)-5-(4-fluorophenyl)-4-oxo-1,4-dihydropyridine-3-carboxamide], the melting point is over 300 °C. On aurora B, the IC50 came out at 128 nM. The half-inhibitory concentration (IC50) on FLT-3 worked out at 38.1 nM. The half-maximal inhibitory concentration (IC50) in data set [2] stood at 1.83 nM. Moreover, the IC50 in data set [3] is 0.45 ± 0.07 µM.

Regarding `Cc1cc(C)c(/C=C2\C(=O)Nc3cc(NC(=O)c4c[nH]cc(-c5ccc(F)cc5)c4=O)ccc32)[nH]1` [D140, (Z)—N-(3-((3,5-dimethyl-1H-pyrrol-2-yl)methylene)-2-oxoindolin-6-yl)-5-(4-fluorophenyl)-4-oxo-1,4-dihydropyridine-3-carboxamide], the melting point is over 300 °C. Besides, the IC50 in data set [1] is 0.56 ± 0.02 µM. At aurora B, the IC50 is 179 nM. Besides, the IC50 on FLT-3 turned out to be 86.6 nM. The same compound returned an IC50 in data set [2] of 12.8 nM.

As for `Cc1[nH]c(/C=C2\C(=O)Nc3cc(NC(=O)c4c[nH]cc(-c5ccc(F)cc5)c4=O)ccc32)c(C)c1C(=O)N1CCN(C)CC1` [D149, (Z)—N-(3-((3,5-dimethyl-4-(4-methylpiperazine-1-carbonyl)-1H-pyrrol-2-yl)methylene)-2-oxoindolin-6-yl)-5-(4-fluorophenyl)-4-oxo-1,4-dihydropyridine-3-carboxamide], the melting point was 283 °C (dec.). For the same compound, the IC50 in data set [1] is 0.65 ± 0.11 µM. Further, the IC50 at aurora B worked out at 70.5 nM. The IC50 on FLT-3 was determined as 1.4 nM. The IC50 in data set [2] worked out at 0.05 nM. Besides, in data set [3], the IC50 was 0.55 ± 0.05 µM.

Consider `Cc1[nH]c(/C=C2\C(=O)Nc3cc(NC(=O)c4c[nH]cc(-c5ccc(F)cc5)c4=O)ccc32)c(C)c1CC(=O)N1CCN(C)CC1` [D150, (Z)—N-(3-((3,5-dimethyl-4-(2-(4-methylpiperazin-1-yl)-2-oxoethyl)-1H-pyrrol-2-yl)methylene)-2-oxoindolin-6-yl)-5-(4-fluorophenyl)-4-oxo-1,4-dihydropyridine-3-carboxamide], for which the melting point is over 300 °C. Further, the IC50 in data set [1] came out at 0.7 ± 0.07 µM. For the same compound, on aurora B, the concentration for half-maximal inhibition (IC50) was found to be 91.6 nM. For the same compound, the IC50 at FLT-3 amounted to 10.3 nM. Moreover, the midpoint of inhibition in data set [2], the IC50, lay at 0.1 nM. Further, the IC50 in data set [3] is 0.57 ± 0.04 µM.

The term IC50 denotes the midpoint of a concentration-inhibition curve. For orientation: melting point means the temperature of the solid-liquid transition. Usually inhibition stands for the drop in the measured response relative to a control, in per cent.
